From patent US4309559A, “Sulphonamides useful as pesticides” (FBC Limited, priority 1977, dated 1982)
Where two headings read alike, the source gives them in different places.

Assays:
Mustard (Sinapis alba) [1] = test: Post-emergence foliar spray, herbicidal/growth regulant response, mustard; type: in vivo; conditions: 168 h, foliar spray 11.2 kg/ha, 7 days, 0=no effect, 100=complete kill, read-out: herbicidal or growth regulant response index
Procedure: (§1) Seeds of the plant species listed below were sown in anodised aluminium pans, 19 cm long×9.5 cm wide×5 cm deep, containing John Innes I potting compost. They were then watered and placed in a controlled environment room (22° C.; 65-85% relative humidity; 14 hours per day artificial illumination at 13,000 lux). Fourteen days after sowing, the seedlings received a foliar spray of a compound listed below, formulated as a solution in 1:1 by volume aqueous acetone. The concentration of active ingredient and volume of application were adjusted so as to be equivalent to a rate of 11.2 kg/ha in 450 liters per hectare. After seven days growth in the controlled environment room, the plants were visually assessed for any herbicidal or growth regulant response. All differences from the untreated control were scored according to an index where 0=no effect and 100=complete kill.
(§2) The product of Example 95 was tested according to the procedure of Examples 49-55.

Maize (Zea mays) = test: Soil incorporation (attaclay/sand dust), growth regulatory or herbicidal effects, maize; type: in vivo; conditions: 504 h, soil incorporation 130 ppm, 21 days, 0=no effect, 100=complete kill/suppression, read-out: growth regulatory or herbicidal effect score
Description: (§3) The compounds listed below were each formulated as an attaclay/sand dust and incorporated into John Innes I potting compost at a rate equivalent to 26 parts per million weight/volume of active ingredient to soil and placed in anodised aluminium pans, 19 cm long×9.5 cm wide×5.0 cm deep. This rate is approximately equivalent to a soil surface application of 11.2 kg active ingredient/hectare cultivated to a depth of 5 cm. Seeds of the species listed below were sown in the treated soil, watered and placed in a controlled environment room (22° C.; 65-85% relative humidity; 14 hours per day artificial illumination at 13,000 lux) for 21 days. The plants were then visually assessed for any growth regulatory or herbicidal effects. All differences from an untreated control were scored on a scale from 0-100, where 0 signifies no effect and 100 signifies complete kill.
(§4) The compounds listed below were tested according to the procedure of Examples 56-60 but at 130 parts per million weight/volume of active ingredient to soil. This rate is approximately equivalent to a soil surface application of 56 kg active ingredient per hectare cultivated to a depth of 5 cm.
(§5) The product of Example 95 was tested according to the procedure of Examples 56-60 but at 130 and 26 parts per million weight/volume. The results were as follows:
(§6) N-(2-oxopropyl)-2'-chloro-6'-methyl-methanesulphonanilide, formulated as an attaclay/sand dust, was incorporated in John Innes I potting compost at a rate equivalent to 130 parts per million weight/volume of active ingredient to soil and placed in anodised aluminium pans, 19 cm long×9.5 cm wide×5.0 cm deep. These rates are approximately equivalent to a soil surface application of 56 kg active ingredient per hectare cultivated to a depth of 5 cm. Seeds of Peas, Mustard, Linseed, Maize, Oats and Ryegrass were sown in the treated soil, watered and placed in a controlled environment room (22° C.; 65-85% relative humidity; 14 hours artificial illumination at 13000 lux) for 21 days.
(§7) The plants were then visually assessed for any growth regulatory or herbicidal effects. All differences from an untreated control were scored on a scale from 0-100, where 0 signifies no effect and 100 signifies complete suppression.

Mustard (Sinapis alba) [2] = test: Soil incorporation (attaclay/sand dust), growth regulatory or herbicidal effects, mustard; type: in vivo; conditions: 504 h, soil incorporation 130 ppm, 21 days, 0=no effect, 100=complete kill/suppression, read-out: growth regulatory or herbicidal effect score
Description: as §3, §4, §5, §6, §7

[3] = test system: Sugarbeet (Beta vulgaris); test: Post-emergence foliar spray, herbicidal/growth regulant response, sugarbeet; type: in vivo; conditions: 168 h, foliar spray 11.2 kg/ha, 7 days, 0=no effect, 100=complete kill, read-out: herbicidal or growth regulant response index
Procedure: as §1, §2

[4] = test system: Ryegrass (Lolium perenne); test: Post-emergence foliar spray, herbicidal/growth regulant response, ryegrass; type: in vivo; conditions: 168 h, foliar spray 11.2 kg/ha, 7 days, 0=no effect, 100=complete kill, read-out: herbicidal or growth regulant response index
Procedure: as §1, §2

[5] = test system: Linseed (Linum usitatissimum); test: Soil incorporation (attaclay/sand dust), growth regulatory or herbicidal effects, linseed; type: in vivo; conditions: 504 h, soil incorporation 130 ppm, 21 days, 0=no effect, 100=complete kill/suppression, read-out: growth regulatory or herbicidal effect score
Description: as §3, §4, §5, §6, §7

Peas (Pisum sativum) [6] = test: Post-emergence foliar spray, herbicidal/growth regulant response, peas; type: in vivo; conditions: Lathyrus oleraceus, 168 h, foliar spray 11.2 kg/ha, 7 days, 0=no effect, 100=complete kill, read-out: herbicidal or growth regulant response index
Procedure: as §1, §2

Oat (Avena sativa) = test: Post-emergence foliar spray, herbicidal/growth regulant response, oat; type: in vivo; conditions: 168 h, foliar spray 11.2 kg/ha, 7 days, 0=no effect, 100=complete kill, read-out: herbicidal or growth regulant response index
Procedure: as §1, §2

Oats (Avena sativa) = test: Soil incorporation (attaclay/sand dust), growth regulatory or herbicidal effects, oats; type: in vivo; conditions: 504 h, soil incorporation 130 ppm, 21 days, 0=no effect, 100=complete kill/suppression, read-out: growth regulatory or herbicidal effect score
Description: as §3, §4, §5, §6, §7

Peas (Pisum sativum) [7] = test: Soil incorporation (attaclay/sand dust), growth regulatory or herbicidal effects, peas; type: in vivo; conditions: Lathyrus oleraceus, 504 h, soil incorporation 130 ppm, 21 days, 0=no effect, 100=complete kill/suppression, read-out: growth regulatory or herbicidal effect score
Description: as §3, §4, §5, §6, §7

[8] = test system: Ryegrass (Lolium perenne); test: Soil incorporation (attaclay/sand dust), growth regulatory or herbicidal effects, ryegrass; type: in vivo; conditions: 504 h, soil incorporation 130 ppm, 21 days, 0=no effect, 100=complete kill/suppression, read-out: growth regulatory or herbicidal effect score
Description: as §3, §4, §5, §6, §7

[9] = test system: Linseed (Linum usitatissimum); test: Post-emergence foliar spray, herbicidal/growth regulant response, linseed; type: in vivo; conditions: 168 h, foliar spray 11.2 kg/ha, 7 days, 0=no effect, 100=complete kill, read-out: herbicidal or growth regulant response index
Procedure: as §1, §2

Pythium ultimum [10] = test: Fungal growth on the surface of soil infected with damping-off disease organism; type: in vivo; conditions: 6 days, 25° C., 0-8 scale
Procedure: (§8) A one week old maize meal/sand culture of the damping-off disease organism Pythium ultimum was thoroughly mixed by hand with clean sterile John Innes No. 1 potting compost in the ratio of 3 kg culture to 12 liters of soil. The infected soil was then left for approximately 18 hours before use. Each of the compounds listed below was ground together with a wetting agent, Tween 20 (1% of final volume), until a solution or fine suspension was produced which was then diluted with distilled water to give 160 ml of solution containing 1500, 500, 150 or 50 ppm active ingredient. 15 ml aliquots of this solution were added to 75 g portions of the soil infected with Pythium ultimum which were contained in small plastic cartons, 60 mm diameter×55 mm high. Fifteen cabbage seeds, variety Flower of Spring, were placed in a circular depression in the treated infected soil, recovered, and the whole sealed with a plastic cap. The cartons were then placed in a constant temperature room at 25° C.±1° C. Four replications per treatment were made with one additional treatment where seeds were sown in soil which was chemically treated only, i.e. there was no infection. This latter treatment was included to measure the direct effect of the chemical on the germination of the seed. After six days the cartons were removed from the controlled temperature chamber and assessed for degree of fungal growth on the soil surface and percentage of seedling emergence. The results of both these assessments are expressed in a 0-8 scale as follows:
(§9) One week old maize meal/sand culture of the damping-off disease organism Pythium ultimum was thoroughly mixed by hand with clean sterile John Innes No. 1 potting compost in the ratio of 3 kg culture to 12 liters of soil. This infected soil was then left for approximately 18 hours before use. The compounds listed in the Table below were each ground with the wetting agent Tween 20 (1% of final volume), until a solution or fine suspension was produced, which was then diluted with distilled water to give 160 ml of solution containing 1500 or 500 parts per million (ppm) active ingredient. 15 ml aliquots of this solution were added to 75 g portions of the soil infected with Pythium ultimum which were contained in small plastic cartons, 60 mm diameter×55 mm high.
(§10) Fifteen cabbage seeds, variety Flower of Spring, were placed in a circular depression in the treated infected soil, recovered, and the whole sealed with a plastic cap. The cartons were then placed in a constant temperature room at 25° C.±1° C. Four replications per treatment were made, with one additional treatment where seeds were sown in soil which was chemically treated only, i.e. there was no infection. This latter treatment was included to measure the direct effect of the chemical on the germination of the seed.
(§11) After six days, the cartons were removed from the controlled temperature chamber and assessed for degree of fungal growth on the soil surface and percentage of seedling emergence. The results of both these assessments are expressed in a 0-8 scale as follows:
(§12) N-(2-oxopropyl)-3',4'-dimethyl-methanesulphonanilide was tested at a dose rate of 300 ppm in the test described in Examples 233 and 234. It gave a mycelial control score of 0 and a germination score of 3 whereas the untreated samples gave a score of 0 for both.

Pythium ultimum [11] = test: Cabbage seedling emergence in soil infected with Pythium ultimum; type: in vivo, Pythium ultimum (on cabbage, variety Flower of Spring); conditions: 6 days, 25° C., 0-8 scale
Procedure: as §8, §9, §10, §11, §12

[12] = test system: potato blight Phytophthora infestans; type: in vivo; conditions: 5 days, controls less than 5%

SMILES: CCOC(=O)C(C)N(c1ccccc1Cl)S(C)(=O)=O (stereo not shown) [Example 25]
- pest or weed control at 11200 g/ha (Mustard (Sinapis alba) [1]): 80%
- plant injury at 130 µg/mL (Maize (Zea mays)): 40%
- pest or weed control at 130 µg/mL (Mustard (Sinapis alba) [2]): 100%
- plant injury at 11200 g/ha [3]: 30%
- pest or weed control at 11200 g/ha [4]: 0%
- pest or weed control at 130 µg/mL [5]: 50%
- pest or weed control at 11200 g/ha (Peas (Pisum sativum) [6]): 5%
- plant injury at 11200 g/ha (Oat (Avena sativa)): 20%
- plant injury at 130 µg/mL (Oats (Avena sativa)): 20%
- pest or weed control at 130 µg/mL (Peas (Pisum sativum) [7]): 5%
- pest or weed control at 130 µg/mL [8]: 0%
- pest or weed control at 11200 g/ha [9]: 20%

SMILES: CCOC(=O)C(C)N(c1c(C)cccc1C)S(=O)(=O)CC (stereo not shown) [Example 26, N-(1-[ethoxycarbonyl]ethyl)-2',6'-dimethyl-ethanesulphonanilide]
- Mycelial Control Score (Pythium ultimum [10]; 30 ppm): 0 (<20% inhibition)
- Mycelial Control Score (Pythium ultimum [10]; 100 ppm): 0 (<20% inhibition)
- Mycelial Control Score (Pythium ultimum [10]; 300 ppm): 0 (<20% inhibition)
- pest or weed control at 11200 g/ha (Mustard (Sinapis alba) [1]): 100%
- plant injury at 130 µg/mL (Maize (Zea mays)): 100%
- pest or weed control at 130 µg/mL (Mustard (Sinapis alba) [2]): 100%
- plant injury at 11200 g/ha [3]: 90%
- pest or weed control at 11200 g/ha [4]: 40%
- Germination Score (Pythium ultimum [11]; 30 ppm): 3 (45-54% inhibition)
- Germination Score (Pythium ultimum [11]; 100 ppm): 4 (55-64% inhibition)
- Germination Score (Pythium ultimum [11]; 300 ppm): 4 (55-64% inhibition)
- pest or weed control at 130 µg/mL [5]: 100%
- pest or weed control at 11200 g/ha (Peas (Pisum sativum) [6]): 5%
- plant injury at 11200 g/ha (Oat (Avena sativa)): 40%
- plant injury at 130 µg/mL (Oats (Avena sativa)): 100%
- pest or weed control at 130 µg/mL (Peas (Pisum sativum) [7]): 100%
- pest or weed control at 130 µg/mL [8]: 100%
- pest or weed control at 11200 g/ha [9]: 100%

SMILES: CCCCS(=O)(=O)N(c1c(C)cccc1C)C(C)C(=O)OCC (stereo not shown) [Example 27]
- pest or weed control at 11200 g/ha (Mustard (Sinapis alba) [1]): 100%
- plant injury at 130 µg/mL (Maize (Zea mays)): 100%
- pest or weed control at 130 µg/mL (Mustard (Sinapis alba) [2]): 100%
- plant injury at 11200 g/ha [3]: 90%
- pest or weed control at 11200 g/ha [4]: 20%
- pest or weed control at 130 µg/mL [5]: 100%
- pest or weed control at 11200 g/ha (Peas (Pisum sativum) [6]): 5%
- plant injury at 11200 g/ha (Oat (Avena sativa)): 30%
- plant injury at 130 µg/mL (Oats (Avena sativa)): 100%
- pest or weed control at 130 µg/mL (Peas (Pisum sativum) [7]): 20%
- pest or weed control at 130 µg/mL [8]: 100%
- pest or weed control at 11200 g/ha [9]: 70%

SMILES: CCc1ccccc1N(C(C)C(=O)N1CCOCC1)S(C)(=O)=O (stereo not shown) [Example 41]
- % Control, potato blight ([12]; 2000 ppm): 93%

SMILES: Cc1cccc(C)c1N(CC#N)S(C)(=O)=O [Example 46]
- plant injury at 130 µg/mL (Maize (Zea mays)): 30%
- pest or weed control at 130 µg/mL (Mustard (Sinapis alba) [2]): 100%
- pest or weed control at 130 µg/mL [5]: 90%
- % Control, potato blight ([12]; 2000 ppm): 56%
- plant injury at 130 µg/mL (Oats (Avena sativa)): 70%
- pest or weed control at 130 µg/mL (Peas (Pisum sativum) [7]): 20%
- pest or weed control at 130 µg/mL [8]: 80%

SMILES: CCCS(=O)(=O)N(CC#N)c1ccc(Cl)c(Cl)c1 [Example 132]
- % Control, potato blight ([12]; 500 ppm): 59%
- % Control, potato blight ([12]; 2000 ppm): 76%
